# From publication PMC12693182, “Synthesis and QSAR Studies of Claramine Derivatives, a New Class of Broad-Spectrum Antimicrobial Agents” (Molecules, 2025)
# Read-outs that look alike come from different tables or passages of the source.
# Key:
# [1] = tested on: S. aureus 340 and P. aeruginosa 1051575; assay: MIC against S. aureus and P. aeruginosa strains (Figure 6); type: cell-based; details: range over both strains, C-24 methyl ester series
# Protocol: (§1) Antimicrobial activity of the compounds was studied by determination of minimal inhibitory concentrations (MIC) according to the NCCLS guidelines M7-A2 using the microbroth dilution methods. The bacteria strains were grown on trypticase soy agar (Becton Dickinson) at 37 °C for 24 h. Inocula were prepared in TCE (tryptone 0.1%, […], wt/vol) by ajusting the turbidity at 623 nm to obtain 1–3 10^5 CFU/mL.
# (§2) Antimicrobial activities of the compounds were determined by using a broth microdilution method performed in sterile 96-well microplates. All compounds were solubilized in water at a concentration of 10 mM and were transferred to each microplate well in order to obtain a two-fold serial dilution in 100 µL of broth and 100 µL of inoculum containing 2–6 10^5 CFU of each bacterium were added to each well. Some wells were reserved for positive controls and inoculum viability.
# S. intermedius 1051997 = assay: MIC, broth microdilution; type: cell-based, Staphylococcus intermedius; details: for MIC: Staphylococcus intermedius, 1051997, 24 h, 24 h
# Protocol: as §1, §2
# [2] = tested on: Chinese hamster Ovary cells (CHO-K1); assay: Cytotoxicity assay (WST-1 / Neutral Red); type: cell-based; details: 24-h incubation; for IC50: Cricetulus griseus, 24 h
# Protocol: The cytotoxic activities of compounds were assessed on Chinese hamster Ovary cells (CHO-K1) provided from ATCC-LGC Standards Sarl (Molsheim, France). Cells were maintained in Mc Coy’s 5A (CHO) medium supplemented with 10% bovine calf serum, 2 mM glutamine, and 100 U mL^−1/10 µg mL^−1 penicillin/streptomycin mixtures. For the cytotoxicity experiments, they were seeded in 96-well plates and incubated at 37 °C in humidified atmosphere containing 5% CO2 overnight, then concentrations of compounds were incorporated in triplicate cultures. After a 24-h incubation period at 37 °C, cells were submitted to three successive washes in phosphate buffer saline (PBS) and cell viability was evaluated by two different vital dyes: • i. A first set of cell cultures was incubated in PBS containing 10% WST-1 for 30 min at 37 °C, 5% CO2. Cell viability was evaluated by the assessment of WST-1 absorbance at 450 nm in a microplate spectrophotometer. • ii. A second set of cell cultures was placed into Neutral Red medium (50 μg mL^−1 Neutral Red in complete medium) and incubated for 3 h at 37 °C, 5% CO2. Then the Neutral Red medium was removed and the distaining solution (50% ethanol, 1% acetic acid, 49% distilled water; 50 µL per well) was added into the wells. The plates were shaken for 15–20 min at room temperature in the dark. Cell viability was evaluated by the assessment of absorbance at 540 nm in a microplate spectrophotometer.
# Results were expressed as percentages of cell viability about the control (culture medium-only), which corresponded to 100% cell viability. Dose-response curves were calculated by non-linear regression analysis with TableCurve 2D software (V 5.0.1) (Systat Software Inc., San Jose, CA, USA). The Inhibitory Concentration 50% (IC50) was defined as the concentration of compounds that induced a 50% decrease of viable cells.
# E. coli 1956 = assay: MIC, broth microdilution; type: cell-based, Escherichia coli; details: Escherichia coli, 1956, 24 h
# Protocol: as §1, §2
# E. coli ATCC 25922 = assay: MIC, broth microdilution; type: cell-based, Escherichia coli; details: ATCC strain; for MIC: Escherichia coli, ATCC25922, 24 h
# Protocol: as §1, §2
# P. aeruginosa ATCC 27853 = assay: MIC, broth microdilution; type: cell-based, Pseudomonas aeruginosa; details: ATCC strain; for MIC: Pseudomonas aeruginosa, ATCC27853, 24 h
# Protocol: as §1, §2
# P. aeruginosa 1051575 = assay: MIC, broth microdilution; type: cell-based, Pseudomonas aeruginosa; details: for MIC P. aeruginosa 1051575 / MIC: 24 h; for MIC: Pseudomonas aeruginosa, 1051575, 24 h
# Protocol: as §1, §2
# S. aureus ATCC 25923 = assay: MIC, broth microdilution; type: cell-based, Staphylococcus aureus; details: Staphylococcus aureus, ATCC25923, 24 h, ATCC strain
# Protocol: as §1, §2
# S. aureus 340 = assay: MIC, broth microdilution; type: cell-based, Staphylococcus aureus; details: for MIC: Staphylococcus aureus, 340, 24 h; for MIC S. aureus 340: 24 h
# Protocol: as §1, §2
# E. faecalis ATCC29212 = assay: MIC, broth microdilution; type: cell-based, Enterococccus faecalis; details: ATCC strain; for MIC: Enterococcus faecalis, ATCC29212, 24 h, read-out: MIC E. faecalis 29212
# Protocol: as §1, §2
# [3] = tested on: Gram-positive and Gram-negative human and veterinary reference strains; assay: MIC against the panel of Gram-positive and Gram-negative reference strains; type: cell-based; details: for MIC: over several or all of the tested pathogens; for Therapeutic Ratio (TR): IC50 (CHO)/MIC, over several of the tested pathogens
# Excerpt: Typically, cytotoxicity was expressed as the half maximal inhibitory concentration (IC50), defined as the concentration of a compound that decreases cell viability by 50% relative to untreated cells. This parameter provides a quantitative measure of a compound’s toxic potential toward mammalian cells. To facilitate data interpretation, we defined the Therapeutic Ratio (TR) as the ratio of IC50 (µg/mL) to MIC (µg/mL). This dimensionless parameter provides a straightforward measure of antibacterial selectivity, allowing direct comparison of cytotoxicity and antibacterial potency. A high TR value indicates compounds with strong antibacterial activity at concentrations far below their cytotoxic threshold, whereas a TR close to unity reflects poor selectivity and limited therapeutic potential. […] Within the Claramine A series, variations in IC50 strongly impacted TR values (Figure 5).
# as §1, §2
# [4] = Homo sapiens, 24 h, read-out: MIC
SMILES,MIC (S. intermedius 1051997) [µg/mL],IC50 [2] [µg/mL],MIC (E. coli 1956) [µg/mL],MIC (S. aureus ATCC 25923) [µg/mL],MIC (S. aureus 340) [µg/mL],IC50 CHO [2] [µg/mL],MIC (E. coli ATCC 25922) [µg/mL],MIC (P. aeruginosa ATCC 27853) [µg/mL],MIC (E. faecalis ATCC29212) [µg/mL],MIC (P. aeruginosa 1051575) [µg/mL],other results
COC(=O)CCC(C)C1CCC2C3CCC4CC(NCCCNCCCNCCCN)CCC4(C)C3CC(O)C12C (centres unmarked) [Claramine A06],,,,,,,,,,,MIC [1]: 2 to 4 µg/mL
COC(=O)CCC(C)C1CCC2C3CCC4CC(NCCCN(CCCN)CCCN)CCC4(C)C3CC(O)C12C (centres unmarked) [Claramine A17],,,,,,,,,,,MIC [1]: 7 to 14 µg/mL
CC(C)OC(=O)CCC(C)C1CCC2C3C(O)CC4CC(NCCCNCCCCN)CCC4(C)C3CCC12C (centres unmarked) [Claramine C18],4,95,14,7,7,,,,,,MIC E. coli 25922 (E. coli ATCC 25922; 24 h): 14 µg/mL; MIC P. aeruginosa 27853 (P. aeruginosa ATCC 27853; 24 h): 14 µg/mL; MIC P. aeruginosa 1051575 (P. aeruginosa 1051575): 14 µg/mL; MIC E. faecalis 29212 (E. faecalis ATCC29212; 24 h): 7 µg/mL
CC(C)OC(=O)CCC(C)C1CCC2C3C(O)CC4CC(NCCN(CCN)CCN)CCC4(C)C3CCC12C (centres unmarked) [Claramine D10],7,,56,28,,80,110,110,56,,MIC P. aeruginosa 1051575 (P. aeruginosa 1051575): 14 µg/mL; MIC S. aureus 340 (S. aureus 340): 28 µg/mL
"CC(C)OC(=O)CCC(C)C1CCC2C3CCC4CC(NCCCNCCCCNCCCN)CCC4(C)C3CC(O)C12C (centres unmarked) [Claramine A01, 3-Spermino Isopropyl Deoxycholate]",8,> 35,15,2,< 4,43,4,8,30,15,"MIC S. aureus 340 (S. aureus 340): 2 µg/mL; MIC [3, 4]: < 15 µg/mL; Therapeutic Ratio (TR) [3]: > 5; MIC [3]: increased membrane permeabilization and concomitant disruption of proton homeostasis"
COC(=O)CCC(C)C1CCC2C3C(O)CC4CC(NCCCNCCCCNCCCN)CCC4(C)C3CCC12C (centres unmarked) [Claramine C01],2,24,60,4,4,,30,30,15,7,
CC(C)OC(=O)CCC(C)C1CCC2C3C(O)CC4CC(NCCCNCCCNCCCN)CCC4(C)C3CCC12C (centres unmarked) [Claramine C17],0.8,> 60,10,4,2,85,16,16,8,,"Therapeutic Ratio (TR) (S. intermedius 1051997; IC50 (CHO)/MIC, S. intermedius): 65–114; Therapeutic Ratio (TR) (P. aeruginosa 1051575; IC50 (CHO)/MIC, P. aeruginosa): > 10"
CC(C)OC(=O)CCC(C)C1CCC2C3CCC4CC(NCCCNCCCCNCCCN)CCC4(C)C3CCC12C (centres unmarked) [Claramine E01],2,24,8,4,4,,15,15,8,8,
COC(=O)CCC(C)C1CCC2C3CCC4CC(NCCCN5CCN(CCCN)CC5)CCC4(C)C3CC(O)C12C (centres unmarked) [Claramine A18],4,135,,15,7,,7,15,30,15,"MIC [3, 4]: < 15 µg/mL; Therapeutic Ratio (TR) [3]: > 5"
CC(C)OC(=O)CCC(C)C1CCC2C3CCC4CC(NCCN(CCN)CCN)CCC4(C)C3CCC12C (centres unmarked) [Claramine E22],7,107,55,14,14,105,110,110,55,55,
